Laboratory results taken from patent publication US20230255934A1, “NURR1 RECEPTOR MODULATORS AND USES THEREOF” (The Regents of the University of California, priority 2020, published 2023).
Residue numbers refer to the chain shown, from its start. Read-outs that look alike come from different tables or passages of the source.

What was measured:
MN9D cells = test: CytoTox-Glo cytotoxicity assay; assay type: cell-based; settings: 24 h treatment, 10 μM unless stated
Description: Cytotoxicity assays were carried out using the CytoTox-Glo Cytotoxicity Assay Kit (Promega) according to the manufacturer's instructions. Briefly, MN9D cells were resuspended in DMEM/F-12 with 5% FBS at 2·10^5 cells/ml and added to an equal volume of two-fold concentrated compound in the same media containing 0.2% DMSO (prepared by diluting DMSO stock of the compound in warm DMEM/F-12 with 5% FBS; for DMSO control equivalent volume of DMSO was used instead of the compound stock), and immediately re-plated onto poly-D-lysine pre-treated 96-well white-walled flat clear bottom plate (Corning cat #3903) at a density of 1·10^4 cells/well (100 μL/well), 3 replicas per compound. As a background (BG) control, for each of the compound (or DMSO) equivalent volume of compound mixed with DMEM/F-12+5% FBS was plated. After 24 h treatment at 37° C., in 5% C02 incubator, 50 μL of CytoTox-Glo™ Cytotoxicity Assay Reagent was added to each well, mixed briefly by orbital shaking and incubated for 15 min at ambient temperature. Luminescence signal corresponding to dead cells was measured using Biotek Synergy H4 hybrid microplate reader. After the measurement, 50 μL of Lysis Reagent was added to each well, mixed, incubated for 15 min at ambient temperature, and total luminescence was measured. The percentage of viable cells was then calculated as follows: Percent Viable Cells (%)=100% (Total cell luminescence (test compound)—Dead cell luminescence (test compound))/(Total cell luminescence (DMSO)—Dead cell luminescence (DMSO)).

[1] = Chemical stability in solution; assay type: physicochemical; settings: observed during data acquisition
Nurr1 LBD Arg563Ala = target: T1, Nurr1 LBD Arg563Ala (Homo sapiens, UniProt P43354, R563A); test: MST binding to Arg563Ala mutant Nurr1 LBD; settings: for Amplitude: Table 1, MST amplitude, R563A; for Amplitude (% change) / KD (% change): Table 1, R563A relative to WT; for Response Amplitude: Table 2, MST, Arg563Ala
T1 construct: Mutants of LAP2 Nurr1 were prepared by GenScript starting from LAP2 Nurr1 vector; made in house
T1 sequence (P43354 with tags, fused parts or gaps R563A): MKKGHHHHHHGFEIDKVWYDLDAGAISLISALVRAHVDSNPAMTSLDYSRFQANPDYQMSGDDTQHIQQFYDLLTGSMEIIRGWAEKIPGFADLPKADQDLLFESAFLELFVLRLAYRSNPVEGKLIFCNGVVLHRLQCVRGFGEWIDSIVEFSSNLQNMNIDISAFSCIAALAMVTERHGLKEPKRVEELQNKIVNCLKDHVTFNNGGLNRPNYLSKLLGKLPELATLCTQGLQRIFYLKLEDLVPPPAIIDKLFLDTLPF
Description: (§1) The plasmid used for the expression of LAP2-tagged Nurr1 LBDs (LAP2 Nurr1) was prepared by GenScript (Piscataway, N.J.) as the product of gene synthesis and subcloning into pET-21a(+) Vector (GenScript) using the Ndel and Xhol sites within the MCS. Mutants of LAP2 Nurr1 were prepared by GenScript starting from LAP2 Nurr1 vector.
(§2) Concentration-dependent association of the indoles with the Nurr1 LBD was carried out using microscale thermophoresis. Stock solutions (10 mM in DMSO) of each indole were serially diluted (200 μM indole, 0.5× dilutions down to 0.0061 μM) in MST buffer (25 mM HEPES, pH 7.4, 150 mM NaCl, and 0.1% Pluronic F127) containing 2% DMSO. The dilutions were carried out with 4% DMSO in the MST buffer for a total of 16 concentrations. Equivalent volumes and concentrations of the fluorescently labeled Nurr1 LBD in MST buffer were added to each ligand dilution in the series to reach a final concentration of 75 nM labeled protein. After incubating for 20 minutes, the samples were loaded into Monolith NT.115 Capillaries (Nanotemper).
(§3) Data were collected using the Monolith NT.115 System (Nanotemper), with settings for all samples at 40% excitation power and 40% MST power. The initial fluorescence was recorded for 3 sec and the thermophoresis fluorescence response was recorded for 20 sec. The data was inspected with Palmist software^5, and data points affected by initial fluorescence quenching or photobleaching were eliminated. The fluorescent response for each sample was normalized to the initial fluorescence using Palmist software to provide the values of thermophoresis (Fn). The resulting data was used to generate a plot of the change in thermophoresis (Fn-Fn0, where Fn=thermophoresis and Fn0=thermophoresis response in unbound range) versus concentration of the ligand. GraphPad Prism v. 8.3.0 software was used to fit the resulting data to a mass action equation for a specific binding with Hill slope, solving for KD: Fn-Fn0═Fmax·[L]^n/(KD^n+[L]^n), where Fmax=maximum amplitude of thermophoresis, [L]=concentration of the ligand at a specific point, KD=dissociation constant, nH=Hill Coefficient.

Nurr1 LBD His516Ala = target: T2, Nurr1 LBD His516Ala (Homo sapiens, UniProt P43354, H516A); test: MST binding to His516Ala mutant Nurr1 LBD; settings: for Amplitude (% change) / KD (% change): Table 1, H516 relative to WT; for Amplitude: Table 1, MST amplitude, H516; for Response Amplitude: Table 2, MST, His516Ala
T2 construct: Mutants of LAP2 Nurr1 were prepared by GenScript starting from LAP2 Nurr1 vector; made in house
Description: as §1, §2, §3

[2] = tested on: Nurr1 target genes Th and Vmat2 in MN9D cells; test: Target gene transcription assay (qPCR) in MN9D cells; assay type: cell-based, mouse
Description: Target Gene Transcription Assays. These assays were carried out using standard protocols. MN9D TET-ON frozen cell stocks (P5) were thawed and grown for 60-72 h on poly-D-lysine pre-treated culture dishes (100 mm) in Dulbecco's Modified Eagle Medium/Nutrient Mixture F-12 (DMEM/F-12; Gibco) supplemented with 5% Tet System Approved FBS (Takara Bio USA) at 37° C., 5% C02 to ˜80% confluency. The resulting cells were then trypsinized with 0.25% Trypsin-EDTA (Gibko) and diluted to 2·10^5 cells/ml with fresh medium. The resulting cell suspension (0.8 mL) was added to 2× concentrated compound in the same medium containing 0.2% DMSO (0.8 mL) in an Eppendorf tube. The cell suspension with compound or vehicle (DMSO) was then seeded onto a 24-well plate pre-treated with Poly-D-Lysine at 0.8 mL per well. Assays were performed under conditions of basal Nurr1 expression, without induction of additional Nurr1 expression using doxycycline.
After 24 h, total RNA was extracted the cells in each well using the Quick-RNA MiniPrep Plus Kit (Zymo Research), according to the manufacturer's instructions. The cDNA was then synthesized from 1000 ng of purified RNA using High-Capacity cDNA Reverse Transcription Kit (Applied Biosystems) and used as template. The qPCR as performed using iTaq Universal SYBR Green Supermix (BioRad) and CFX96 Real-Time Detection System machine (BioRad). Briefly, qPCR was performed in hard-shell 96-well PCR plates (BioRad) using cDNA corresponding to 8.75 ng of starting total RNA in a volume of 15 μl, containing 7.5 μl of SYBR Green Supermix, and 1 μL of 10 μM forward and reverse primers. Cycling parameters for qPCR included an initial denaturation at 95° C. for 3 min, followed by 40 cycles of 95° C. for 5 s and annealing at 56° C. for 30 s. The forward and reverse primers (Table 4) were ordered from IDT. Gene expression was quantified by the comparative2-ΔΔCt method, with the mouse housekeeping gene hypoxanthine-guanine phosphoribosyltransferase (Hprt) used as internal reference to determine the relative mRNA expression. Transcript levels for target genes were normalized to the housekeeping gene Hprt and fold change was compared to gene expression levels from vehicle (DMSO) only treated cells. GraphPad Prism 8 software was used for statistical analysis. Two-way ANOVA was applied for DMSO fold change vs compound. Results are from three independent experiments. Relative average expression±SD; *p<0.05, **p<0.01, ***p<0.001, ****p<0.0001 by ANOVA in comparison expression with 0 μM compound (DMSO only).

[3] = target: T3, Nurr1 LBD Arg563Ala + His516Ala (Homo sapiens, UniProt P43354, H516A/R563A); test: MST binding to Arg563Ala + His516Ala double mutant Nurr1 LBD; settings: for Amplitude (% change) / KD (% change): Table 1, H516A/R563A relative to WT; for Amplitude: Table 1, MST amplitude, H516A/R563A; for Response Amplitude: Table 2, MST, Arg563Ala + His516Ala
T3 construct: Mutants of LAP2 Nurr1 were prepared by GenScript starting from LAP2 Nurr1 vector; made in house
T3 sequence (P43354 with tags, fused parts or gaps H516A/R563A): T1 sequence (P43354 with tags, fused parts or gaps R563A) with H180A
Description: as §1, §2, §3

Nurr1 LBD (wildtype) = target: T4, Nurr1 LBD (wildtype) (Homo sapiens, UniProt P43354); test: Microscale thermophoresis (MST) binding to wildtype Nurr1 LBD; settings: for Binding to the Nurr1 LBD (in words): MST; for Amplitude: Table 1, MST amplitude, WT; for Response Amplitude: Table 2, MST, Wildtype
T4 construct: made in house
Description: as §2, §3
To investigate the potential impact of compound nano-aggregation on binding affinity, we used dynamic light scattering to inspect the aggregation of 5-chlorindole in solution and repeated the MST binding experiments in the presence of increasing concentrations of the surfactant Pluoronic F127 (FIGS. 12A-12D). […] As well, increasing concentrations of the surfactant Pluronic F127 had small effects (<2-fold) on the affinity of 5-chloroindole for the Nurr1 LBD (FIGS. 12A-12D).

[4] = Table 1, Nurr1 variant R563A, read-out: KD
[5] = Table 2, Arg563Ala, read-out: Affinity (KD)
[6] = Table 1, Nurr1 variant H516, read-out: KD
[7] = Table 2, His516Ala, read-out: Affinity (KD)
[8] = Table 1, Nurr1 variant H516A/R563A, read-out: KD
[9] = Table 2, Arg563Ala + His516Ala, read-out: Affinity (KD)
[10] = Table 1, Nurr1 variant WT, read-out: KD
[11] = Table 2, Wildtype, read-out: Affinity (KD)

T4 sequence (P43354 with tags, fused parts or gaps): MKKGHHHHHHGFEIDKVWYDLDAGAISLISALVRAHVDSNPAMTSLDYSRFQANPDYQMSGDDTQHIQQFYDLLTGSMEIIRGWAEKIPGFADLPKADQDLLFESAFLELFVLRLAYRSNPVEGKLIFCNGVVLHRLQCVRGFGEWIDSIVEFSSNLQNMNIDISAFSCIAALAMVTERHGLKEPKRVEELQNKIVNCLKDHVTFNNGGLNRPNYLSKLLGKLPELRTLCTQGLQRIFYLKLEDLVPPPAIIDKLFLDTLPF
T2 sequence (P43354 with tags, fused parts or gaps H516A): as the sequence (P43354 with tags, fused parts or gaps) above, with H180A counted along it

| Amplitude (Nurr1 LBD Arg563Ala) | Kd (Nurr1 LBD Arg563Ala; [4]) [µM] | Amplitude (% change) (Nurr1 LBD Arg563Ala) | KD (% change) (Nurr1 LBD Arg563Ala) | Kd (Nurr1 LBD Arg563Ala; [5]) [µM] | Response Amplitude (Nurr1 LBD Arg563Ala) | Amplitude (% change) (Nurr1 LBD His516Ala) | KD (% change) (Nurr1 LBD His516Ala) | Amplitude (Nurr1 LBD His516Ala) | Kd (Nurr1 LBD His516Ala; [6]) [µM] | Kd (Nurr1 LBD His516Ala; [7]) [µM] | Response Amplitude (Nurr1 LBD His516Ala) | Amplitude (% change) [3] | KD (% change) [3] | Amplitude [3] | Kd [3, 8] [µM] | Kd [3, 9] [µM] | SMILES | Cytotoxicity / cell viability (MN9D cells) | Chemical instability in solution [1] | Effect on expression of Nurr1 target genes Th and Vmat2 (in words) [2] | other results |
| --- | --- | --- | --- | --- | --- | --- | --- | --- | --- | --- | --- | --- | --- | --- | --- | --- | --- | --- | --- | --- | --- |
| – | – | – | – | – | – | – | – | – | – | – | – | – | – | – | – | – | Oc1ccc2[nH]ccc2c1 [5-hydroxyindole] | significant cytotoxicity | autooxidation and polymerization in solution | – | – |
| – | – | – | – | – | – | – | – | – | – | – | – | – | – | – | – | – | Nc1ccc2cc[nH]c2c1 [6-aminoindole] | significant cytotoxicity | autooxidation and polymerization in solution | – | – |
| – | – | – | – | – | – | – | – | – | – | – | – | – | – | – | – | – | Nc1ccc2[nH]ccc2c1 [5-aminoindole] | significant cytotoxicity | autooxidation and polymerization in solution | – | – |
| 32 + 3 | 11 | +3% | +400% | 11 | 32 + 3 (ns) | +13% | +186% | 35 + 2 | 6.3 | 6.4 | 35 + 2 (ns) | +39% | +627% | 43 + 5 | 16 | 15.6 | Brc1cc2cc[nH]c2cc1Br [5,6-dibromoindole] | – | – | does not | Response Amplitude [3]: 43 + 5 (ns); Binding to the Nurr1 LBD (in words) (Nurr1 LBD (wildtype)): saturable binding; Amplitude (Nurr1 LBD (wildtype)): 31 + 1; Kd (Nurr1 LBD (wildtype); [10]): 2.2 µM; Response Amplitude (Nurr1 LBD (wildtype)): 31 + 1; Kd (Nurr1 LBD (wildtype); [11]): 2.2 µM |
| 47 + 3 | 13 | −13% | +189% | 13.1 | 47 + 3 (ns) | +19% | +166% | 67 + 9 | 12 | 12 | 67 + 9 (ns) | 0% | +304% | 54 + 5 | 18 | 17.9 | Clc1cc2cc[nH]c2cc1Cl [5,6-dichloroindole] | – | – | does not | Response Amplitude [3]: 54 + 5 (ns); Binding to the Nurr1 LBD (in words) (Nurr1 LBD (wildtype)): saturable binding; Amplitude (Nurr1 LBD (wildtype)): 54 + 4; Kd (Nurr1 LBD (wildtype); [10]): 4.5 µM; Response Amplitude (Nurr1 LBD (wildtype)): 54 + 4; Kd (Nurr1 LBD (wildtype); [11]): 4.5 µM |
| – | – | – | – | – | – | – | – | – | – | – | – | – | – | – | – | – | Oc1ccc2cc[nH]c2c1 [6-hydroxyindole] | significant cytotoxicity | autooxidation and polymerization in solution | – | – |
